Results taken from patent US11046696B2, “Fused pyrimidine compound or salt thereof” (TAIHO PHARMACEUTICAL CO., LTD., priority 2016, dated 2021).

tested on: human thyroid cancer cell line TT with RET activating mutation; experiment: In vivo antitumor effect, mice subcutaneously implanted with TT cells; design: species or system BALB/cA Jcl-nu/nu male mice; conditions: 100 mg/kg/day group, grouping day (day 0)

Structure (SMILES)	TV (mm^3) Day 0 Mean ± SE
COCc1ccc(NC(=O)c2c(C#CCN3CCOCC3)n(C3(C)CC3)c3ncnc(N)c23)cc1 [Example 85, 4-amino-N-[4-(methoxymethyl)phenyl]-7-(1-methylcyclopropyl)-6-(3-morpholinoprop-1-yn-1-yl)-7H-pyrrolo[2,3-d]pyrimidine-5-carboxamide]	169.45 ± 16.73 mm^3

tested on: not given; experiment: not given; conditions: mouse, microsomes, 0.5 h, 1 μM

Structure (SMILES)	Remaining (%)
C/C=C/c1ccc(NC(=O)c2c(OCC)n(C3(C)CC3)c3ncnc(N)c23)cc1 [Example 117, (E)-4-amino-6-ethoxy-7-(1-methylcyclopropyl)-N-(4-(prop-1-en-1-yl)phenyl)-7H-pyrrolo[2,3-d]pyrimidine-5-carboxamide]	53%

tested on: not listed separately; experiment: Evaluation of stability in liver microsome; conditions: mouse liver microsome, 1 μM, 37° C. for 30 minutes

Structure (SMILES)	Remaining (%)
COCc1ccc(NC(=O)c2c(C#CC3CCN(C)CC3)n(C3(C)CC3)c3ncnc(N)c23)cc1 [Example 183, 4-amino-N-(4-(methoxymethyl)phenyl)-7-(1-methylcyclopropyl)-6-((1-methylpiperidin-4-yl)ethynyl)-7H-pyrrolo[2,3-d]pyrimidine-5-carboxamide]	77%
COCc1ccc(NC(=O)c2c(C#CC3(O)CCOCC3)n(C3(C)CC3)c3ncnc(N)c23)cc1 [Example 185, 4-amino-6-((4-hydroxytetrahydro-2H-pyran4-yl)ethynyl)-N-(4-(methoxymethyl)phenyl)-7-(1-methylcyclopropyl)-7H-pyrrolo[2,3-d]pyrimidine-5-carboxamide]	80%
COCc1ccc(NC(=O)c2c(C#CCCN3CCOCC3)n(C3(C)CC3)c3ncnc(N)c23)cc1 [Example 187, 4-amino-N-(4-(methoxymethyl)phenyl)-7-(1-methylcyclopropyl)-6-(4-morpholinobut-1-yn-1-yl)-7H-pyrrolo[2,3-d]pyrimidine-5-carboxamide]	68%
COCc1ccc(NC(=O)c2c(-c3ccc(F)nc3)n(C3(C)CC3)c3ncnc(N)c23)cc1 [Example 190, 4-amino-6-(6-fluoropyridin-3-yl)-N-(4-(methoxymethyl)phenyl)-7-(1-methylcyclopropyl)-7H-pyrrolo[2,3-d]pyrimidine-5-carboxamide]	58%
COCc1ccc(NC(=O)c2c(-c3cncnc3)n(C3(C)CC3)c3ncnc(N)c23)cc1 [Example 194, 4-amino-N-(4-(methoxymethyl)phenyl)-7-(1-methylcyclopropyl)-6-(pyrimidin-5-yl)-7H-pyrrolo[2,3-d]pyrimidine-5-carboxamide]	67%
COCc1ccc(NC(=O)c2c(C#CCC3CCCCC3)n(C3(C)CC3)c3ncnc(N)c23)cc1 [Example 199, 4-amino-6-(3-cyclohexylprop-1-yn-1-yl)-N-(4-(methoxymethyl)phenyl)-7-(1-methylcyclopropyl)-7H-pyrrolo[2,3-d]pyrimidine-5-carboxamide]	80%
COCc1ccc(NC(=O)c2c(C3=CCOCC3)n(C3(C)CC3)c3ncnc(N)c23)cc1 [Example 203, 4-amino-6-(3,6-dihydro-2H-pyran-4-yl)-N-(4-(methoxymethyl)phenyl)-7-(1-methylcyclopropyl)-7H-pyrrolo[2,3-d]pyrimidine-5-carboxamide]	68%
COCc1ccc(NC(=O)c2c(C(C)O)n(C3(C)CC3)c3ncnc(N)c23)cc1 (stereo not shown) [Example 204, 4-amino-6-(1-hydroxyethyl)-N-(4-(methoxymethyl)phenyl)-7-(1-methylcyclopropyl)-7H-pyrrolo[2,3-d]pyrimidine-5-carboxamide]	83%
COCc1ccc(NC(=O)c2c(C#CC3CCOCC3)n(C3(C)CC3)c3ncnc(N)c23)cc1F [Example 205, 4-amino-N-(3-fluoro-4-(methoxymethyl)phenyl)-7-(1-methylcyclopropyl)-6-((tetrahydro-2H-pyran-4-yl)ethynyl)-7H-pyrrolo[2,3-d]pyrimidine-5-carboxamide]	58%
COCc1ccc(NC(=O)c2c(C#CCN3CCOCC3)n(C3(C)CC3)c3ncnc(N)c23)cc1F [Example 206, 4-amino-N-(3-fluoro-4-(methoxymethyl)phenyl)-7-(1-methylcyclopropyl)-6-(3-morpholinoprop-1-yn-1-yl)-7H-pyrrolo[2,3-d]pyrimidine-5-carboxamide]	77%

The remaining lines, values ahead:

Remaining (%)	Structure (SMILES)
58%	COCc1ccc(NC(=O)c2c(C#Cc3c(C)noc3C)n(C3(C)CC3)c3ncnc(N)c23)cc1 [Example 184, 4-amino-6-((3,5-dimethylisoxazol-4-yl)ethynyl)-N-(4-(methoxymethyl)phenyl)-7-(1-methylcyclopropyl)-7H-pyrrolo[2,3-d]pyrimidine-5-carboxamide]
68%	COCc1ccc(NC(=O)c2c(C#CCC(C)O)n(C3(C)CC3)c3ncnc(N)c23)cc1 (stereo not shown) [Example 188, 4-amino-6-(4-hydroxypent-1-yn-1-yl)-N-(4-(methoxymethyl)phenyl)-7-(1-methylcyclopropyl)-7H-pyrrolo[2,3-d]pyrimidine-5-carboxamide]
53%	COCc1ccc(NC(=O)c2c(C#Cc3cnc[nH]3)n(C3(C)CC3)c3ncnc(N)c23)cc1 [Example 191, 6-((1H-imidazol-5-yl)ethynyl)-4-amino-N-(4-(methoxymethyl)phenyl)-7-(1-methylcyclopropyl)-7H-pyrrolo[2,3-d]pyrimidine-5-carboxamide]
79%	COCc1ccc(NC(=O)c2c(C#Cc3ccc(OC)nc3)n(C3(C)CC3)c3ncnc(N)c23)cc1 [Example 192, 4-amino-N-(4-(methoxymethyl)phenyl)-6-((6-methoxypyridin-3-yl)ethynyl)-7-(1-methylcyclopropyl)-7H-pyrrolo[2,3-d]pyrimidine-5-carboxamide]
51%	COCc1ccc(NC(=O)c2c(C#Cc3cncs3)n(C3(C)CC3)c3ncnc(N)c23)cc1 [Example 193, 4-amino-N-[4-(methoxymethyl)phenyl]-7-(1-methylcyclopropyl)-6-(thiazol-5-ylethynyl)-7H-pyrrolo[2,3-d]pyrimidine-5-carboxamide]
70%	COCc1ccc(NC(=O)c2c(C#Cc3cncc(C#N)c3)n(C3(C)CC3)c3ncnc(N)c23)cc1 [Example 195, 4-amino-6-((5-cyanopyridin-3-yl)ethynyl)-N-(4-(methoxymethyl)phenyl)-7-(1-methylcyclopropyl)-7H-pyrrolo[2,3-d]pyrimidine-5-carboxamide]
53%	COCc1ccc(NC(=O)c2c(C#Cc3cncnc3)n(C3(C)CC3)c3ncnc(N)c23)cc1 [Example 196, 4-amino-N-(4-(methoxymethyl)phenyl)-7-(1-methylcyclopropyl)-6-(pyrimidin-5-ylethynyl)-7H-pyrrolo[2,3-d]pyrimidine-5-carboxamide]
52%	COCCN(C)CC#Cc1c(C(=O)Nc2ccc(COC)cc2)c2c(N)ncnc2n1C1(C)CC1 [Example 197, 4-amino-6-(3-((2-methoxyethyl)(methyl)amino)prop-1-yn-1-yl)-N-(4-(methoxymethyl)phenyl)-7-(1-methylcyclopropyl)-7H-pyrrolo[2,3-d]pyrimidine-5-carboxamide]
57%	COCc1ccc(NC(=O)c2c(C#CCN(C)C)n(C3(C)CC3)c3ncnc(N)c23)cc1 [Example 198, 4-amino-6-(3-(dimethylamino)prop-1-yn-1-yl)-N-(4-(methoxymethyl)phenyl)-7-(1-methylcyclopropyl)-7H-pyrrolo[2,3-d]pyrimidine-5-carboxamide]
72%	CCc1c(C(=O)Nc2ccc(COC)cc2)c2c(N)ncnc2n1C1(C)CC1 [Example 207, 4-amino-6-ethyl-N-(4-(methoxymethyl)phenyl)-7-(1-methylcyclopropyl)-7H-pyrrolo[2,3-d]pyrimidine-5-carboxamide]
